In US10570129B2 (Zoetis Services LLC, priority 2015, dated 2020) one finds minimal effective concentration data, which are given here for 10 compounds.

Assay [1] has as its system D. immitis microfilariae. Kind of assay: Dirofilaria immitis, microfilariae (DiMF) in vitro motility assay. Format: cell-based. The note with it: Dirofilaria immitis, 72 h, read-out: DiMF minimally effective dose (MEC).
In assay [2] the test system is Haemonchus contortus L3. Briefly: microbe, parasite or virus in culture. As to conditions: Haemonchus contortus, 96 h, read-out: HcL3 Minimal Effective Concentration (MEC). It counts as cell-based.

As to `Cc1ccc2c3c(n(C(=O)NCc4ccnc(Cl)c4)c2c1)CCN(C/C=C/c1ccc(Cl)cc1)C3` [Example 146, (E)-2-(3-(4-chlorophenyl)allyl)-N-((2-chloropyridin-4-yl)methyl)-7-methyl-1,2,3,4-tetrahydro-5H-pyrido[4,3-b]indole-5-carboxamide], the minimal effective concentration in assay [1] was found to be 10 µM; in assay [2], 0.4 µM.

As for `O=C(NCc1ccnc(Cl)c1)n1c2c(c3ccc(Cl)cc31)CN(C/C=C/c1ccc(Cl)cc1)CC2` [Example 213, (E)-7-chloro-2-(3-(4-chlorophenyl)allyl)-N-((2-chloropyridin-4-yl)methyl)-1,2,3,4-tetrahydro-5H-pyrido[4,3-b]indole-5-carboxamide], the results for the minimal effective concentration in assay [1] and in assay [2] were 3.3 µM and 0.3 µM, respectively.

`O=C(NCc1ccnc(F)c1)n1c2c(c3cc(Cl)ccc31)CN(C/C=C/c1ccc(Cl)cc1)CC2` [Example 260, (E)-8-chloro-2-(3-(4-chlorophenyl)allyl)-N-((2-fluoropyridin-4-yl)methyl)-1,2,3,4-tetrahydro-5H-pyrido[4,3-b]indole-5-carboxamide]: the minimal effective concentration is 10 µM in assay [1] and 0.4 µM in assay [2].

Regarding `N#Cc1ccc2c(c1)c1c(n2C(=O)NCc2ccnc(Cl)c2)CCN(C/C=C/c2cc(F)c(Cl)c(F)c2)C1` [Example 71, (E)-2-(3-(4-chloro-3,5-difluorophenyl)allyl)-N-((2-chloropyridin-4-yl)methyl)-8-cyano-1,2,3,4-tetrahydro-5H-pyrido[4,3-b]indole-5-carboxamide], the minimal effective concentration is over 100 µM in assay [1] and 0.2 µM in assay [2].

As for `O=C(NCc1ccnc(Cl)c1)n1c2c(c3c(Cl)cccc31)CN(C/C=C/c1ccc(Cl)cc1)CC2` [Example 214, (E)-9-chloro-2-(3-(4-chlorophenyl)allyl)-N-((2-chloropyridin-4-yl)methyl)-1,2,3,4-tetrahydro-5H-pyrido[4,3-b]indole-5-carboxamide], the results for the minimal effective concentration in assay [1] and in assay [2] were 18.2 µM and 0.5 µM, respectively.

In the case of `COc1ccc(/C=C/CN2CCc3c(c4cccc(Cl)c4n3C(=O)NCc3ccnc(Cl)c3)C2)cc1` [Example 270, (E)-6-chloro-N-((2-chloropyridin-4-yl)methyl)-2-(3-(4-methoxyphenyl)allyl)-1,2,3,4-tetrahydro-5H-pyrido[4,3-b]indole-5-carboxamide], the minimal effective concentration is 10 µM in assay [1] and over 100 µM in assay [2].

With `COc1cc(CNC(=O)n2c3c(c4cc(C#N)ccc42)CN(C/C=C/c2ccc(F)cc2F)CC3)ccn1` [Example 67, (E)-8-cyano-2-(3-(2,4-difluorophenyl)allyl)-N-((2-methoxypyridin-4-yl)methyl)-1,2,3,4-tetrahydro-5H-pyrido[4,3-b]indole-5-carboxamide], in assay [1], the minimal effective concentration was determined as 0.01 µM.

For `COc1cc(CNC(=O)n2c3c(c4cc(C#N)ccc42)CN(C/C=C/c2cc(F)c(F)c(F)c2)CC3)ccn1` [Example 63, (E)-8-cyano-N-((2-methoxypyridin-4-yl)methyl)-2-(3-(3,4,5-trifluorophenyl)allyl)-1,2,3,4-tetrahydro-5H-pyrido[4,3-b]indole-5-carboxamide], the minimal effective concentration in assay [1] was found to be 0.3 µM.

For `COc1cc(CNC(=O)n2c3c(c4cc(C#N)ccc42)CN(C/C=C/c2ccc(Br)cc2F)CC3)ccn1` [Example 66, (E)-2-(3-(4-bromo-2-fluorophenyl)allyl)-8-cyano-N-((2-methoxypyridin-4-yl)methyl)-1,2,3,4-tetrahydro-5H-pyrido[4,3-b]indole-5-carboxamide], the minimal effective concentration in assay [1] was over 100 µM.

With `COc1cc(CNC(=O)n2c3c(c4cc(C#N)ccc42)CN(C/C=C/c2ccc(Cl)cc2Cl)CC3)ccn1` [Example 65, (E)-8-cyano-2-(3-(2,4-dichlorophenyl)allyl)-N-((2-methoxypyridin-4-yl)methyl)-1,2,3,4-tetrahydro-5H-pyrido[4,3-b]indole-5-carboxamide], the minimal effective concentration in assay [1] was over 100 µM.
